According to patent US11566007B2, “Ras inhibitors” (Revolution Medicines, Inc., priority 2019, dated 2023):

Experiments:
KRAS G12D = KRAS G12D (Homo sapiens (Human), UniProt P01116+P62937, G12D); experiment: Ras-Raf (BRAF RBD) disruption / FRET / MOA assay, KRAS G12D; assay type: biochemical; details: Ras-Raf disruption/FRET/MOA assay; class symbols; read-out: KRAS G12D FRET data IC50
Experimental: (§1) The purpose of this biochemical assay is to measure the ability of test compounds to facilitate ternary complex formation between a nucleotide-loaded Ras isoform and cyclophilin A; the resulting ternary complex disrupts binding to a BRAF^RBD construct, inhibiting Ras signaling through a RAF effector.
(§2) Compound is present in plate wells as a 10-point 3-fold dilution series starting at a final concentration of 30 μM. After incubation at 25° C. for 3 hours, a mixture of Anti-His Eu-W1024 and anti-GST allophycocyanin is then added to assay sample wells at final concentrations of 10 nM and 50 nM, respectively, and the reaction incubated for an additional 1.5 hours. […] Compounds that facilitate disruption of a Ras:RAF complex are identified as those eliciting a decrease in the TR-FRET ratio relative to DMSO control wells.
(§3) This protocol may also be executed substituting other Ras proteins or nucleotides.
(§4) The purpose of this biochemical assay was to measure the ability of test compounds to facilitate ternary complex formation between a nucleotide-loaded K-Ras isoform and Cyclophilin A; the resulting ternary complex disrupts binding to a BRAF^RBD construct, inhibiting K-Ras signaling through a RAF effector. Data is reported as IC50 values.
as §2, with “Compound was” for “Compound is”, “allophycocyanin was” for “allophycocyanin is”, “a K-Ras:RAF” for “a Ras:RAF”, “complex were” for “complex are”

KRAS G12S = KRAS G12S (Homo sapiens (Human), UniProt P01116+P62937, G12S); experiment: Ras-Raf (BRAF RBD) disruption / FRET / MOA assay, KRAS G12S; assay type: biochemical; details: Ras-Raf disruption/FRET/MOA assay; class symbols; read-out: KRAS G12S FRET data IC50
Sequence of KRAS G12S (P01116-2 other isoform, or with tags, fused parts or gaps G12S): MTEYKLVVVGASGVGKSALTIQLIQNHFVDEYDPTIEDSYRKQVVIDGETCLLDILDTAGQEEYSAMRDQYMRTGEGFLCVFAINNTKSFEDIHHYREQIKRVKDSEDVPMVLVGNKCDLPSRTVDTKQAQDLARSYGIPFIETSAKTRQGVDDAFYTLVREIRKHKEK
Sequence of KRAS G12S (P62937 whole entry): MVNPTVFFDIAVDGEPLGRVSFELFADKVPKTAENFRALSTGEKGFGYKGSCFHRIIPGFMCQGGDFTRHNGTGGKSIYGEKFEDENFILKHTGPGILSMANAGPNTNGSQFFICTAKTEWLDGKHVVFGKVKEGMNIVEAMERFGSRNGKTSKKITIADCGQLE
Experimental: as §1, §2, §3, §4
as §2, with “Compound was” for “Compound is”, “allophycocyanin was” for “allophycocyanin is”, “a K-Ras:RAF” for “a Ras:RAF”, “complex were” for “complex are”

Sequence of KRAS G12D (P01116-2 other isoform, or with tags, fused parts or gaps G12D): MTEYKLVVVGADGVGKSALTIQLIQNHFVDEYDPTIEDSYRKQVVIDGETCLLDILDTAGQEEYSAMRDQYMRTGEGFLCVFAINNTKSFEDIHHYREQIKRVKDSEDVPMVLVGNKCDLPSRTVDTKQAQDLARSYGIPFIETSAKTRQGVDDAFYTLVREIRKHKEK
Sequence of KRAS G12D (P62937 whole entry, canonical isoform): as the sequence (P62937 whole entry) above

| Structure (SMILES) | IC50 (KRAS G12D) [nM] | IC50 (KRAS G12S) [nM] |
| --- | --- | --- |
| CCn1c(-c2ccccc2CN(C)C)c2c3cc(ccc31)-c1cc(O)cc(c1)C[C@H](NC(=O)[C@H](C(C)C)N(C)C(=O)c1ccc(NC(=O)/C=C/CN(C)C)cn1)C(=O)N1CCC[C@H](N1)C(=O)OCC(C)(C)C2 [Example A046] | 1000 to 10000 | > 10000 |
| CCn1c(-c2ccccc2CN(C)C)c2c3cc(ccc31)-c1cc(O)cc(c1)C[C@H](NC(=O)[C@H](C(C)C)N(C)C(=O)c1ccc(NC(=O)/C=C/CN(C)C)cc1)C(=O)N1CCC[C@H](N1)C(=O)OCC(C)(C)C2 [Example A049] | > 10000 | > 10000 |
| C=CC(=O)N1CC[C@H](C(=O)N(C)[C@H](C(=O)N[C@H]2Cc3cc(O)cc(c3)-c3ccc4c(c3)c(c(-c3ccc(CN(C)C)cc3COC)n4CC)CC(C)(C)COC(=O)[C@@H]3CCCN(N3)C2=O)C(C)C)C1 [Example A051] | 1000 to 10000 | 100 to 1000 |
| C=CC(=O)N1C[C@H](C)[C@H](C(=O)N(C)[C@H](C(=O)N[C@H]2Cc3cc(O)cc(c3)-c3ccc4c(c3)c(c(-c3ccccc3CN(C)C)n4CC)CC(C)(C)COC(=O)[C@@H]3CCCN(N3)C2=O)C(C)C)C1 [Example A052] | 1000 to 10000 | 100 to 1000 |
| C=CC(=O)N1CC[C@H](C(=O)N(C)[C@H](C(=O)N[C@H]2Cc3cc(O)cc(c3)-c3ccc4c(c3)c(c(-c3cccnc3COC)n4CC)CC(C)(C)COC(=O)[C@@H]3CCCN(N3)C2=O)C2CCCC2)C1 [Example A055] | 1000 to 10000 | 100 to 1000 |
| C=CC(=O)N1C[C@H](C)[C@H](C(=O)N(C)[C@H](C(=O)N[C@H]2Cc3cc(O)cc(c3)-c3ccc4c(c3)c(c(-c3cccnc3COC)n4CC)CC(C)(C)COC(=O)[C@@H]3CCCN(N3)C2=O)C(C)C)C1 [Example A056] | 1000 to 10000 | 100 to 1000 |
| C=CC(=O)N1C[C@H](C)[C@H](C(=O)N(C)[C@H](C(=O)N[C@H]2Cc3cc(O)cc(c3)-c3ccc4c(c3)c(c(-c3cccnc3COC)n4CC)CC(C)(C)COC(=O)[C@@H]3CCCN(N3)C2=O)C2CCCC2)C1 [Example A057] | 1000 to 10000 | 100 to 1000 |
| C=CC(=O)N1CC[C@H](C(=O)N(C)[C@H](C(=O)N[C@H]2Cc3cc(O)cc(c3)-c3ccc4c(c3)c(c(C3=C(COC)COCC3)n4CC)CC(C)(C)COC(=O)[C@@H]3CCCN(N3)C2=O)C(C)C)C1 [Example A058] | 1000 to 10000 | 100 to 1000 |
| C=CC(=O)N1CC[C@H](C(=O)N(C)[C@H](C(=O)N[C@H]2Cc3cc(OC(C)=O)cc(c3)-c3ccc4c(c3)c(c(-c3ccccc3CN(C)C)n4CC)CC(C)(C)COC(=O)[C@@H]3CCCN(N3)C2=O)C(C)C)C1 [Example A059] | > 10000 | > 10000 |
| C=CC(=O)N1CC[C@H](C(=O)N(C)[C@H](C(=O)N[C@H]2Cc3cc(O)cc(c3)-c3ccc4c(c3)c(c(-c3cccnc3COC)n4C)CC(C)(C)COC(=O)[C@@H]3CCCN(N3)C2=O)C(C)C)C1 [Example A066] | > 10000 | 1000 to 10000 |
| C=CC(=O)N1CC[C@@]2(CCN([C@H](C(=O)N[C@H]3Cc4cc(O)cc(c4)-c4ccc5c(c4)c(c(-c4ccccc4CCOC)n5CC)CC(C)(C)COC(=O)[C@@H]4CCCN(N4)C3=O)C(C)C)C2=O)C1 [Example A068] | > 10000 | 1000 to 10000 |
| C=CC(=O)N1CC[C@H](C(=O)N(C)[C@H](C(=O)N[C@H]2Cc3cc(O)cc(c3)-c3ccc4c(c3)c(c(-c3cncc(CN(C)C)c3)n4CC)CC(C)(C)COC(=O)[C@@H]3CCCN(N3)C2=O)C(C)C)C1 [Example A073] | > 10000 | 1000 to 10000 |
| C=CC(=O)N1CC[C@H](C(=O)N(C)[C@H](C(=O)N[C@H]2Cc3cc(OC(=O)N(C)CC(=O)O)cc(c3)-c3ccc4c(c3)c(c(-c3ccccc3CCOC)n4CC)CC(C)(C)COC(=O)[C@@H]3CCCN(N3)C2=O)C(C)C)C1 [Example A078] | > 10000 | > 10000 |
| CCn1c(-c2ccccc2COC)c2c3cc(ccc31)-c1cc(O)cc(c1)C[C@H](NC(=O)[C@H](C(C)C)N(C)C(=O)[C@H]1CCN(C(=O)/C=C/CN(C)C)C1)C(=O)N1CCC[C@H](N1)C(=O)OCC(C)(C)C2 [Example A079] | 1000 to 10000 | 100 to 1000 |
